The values below come from ChEMBL document CHEMBL5465560, “Selectivity Literature for EUbOPEN Chemogenomic Library” (2024).

Test [1] addresses T1, Discoidin domain-containing receptor 2 (Homo sapiens) (UniProt Q16832).
T1 sequence (whole entry): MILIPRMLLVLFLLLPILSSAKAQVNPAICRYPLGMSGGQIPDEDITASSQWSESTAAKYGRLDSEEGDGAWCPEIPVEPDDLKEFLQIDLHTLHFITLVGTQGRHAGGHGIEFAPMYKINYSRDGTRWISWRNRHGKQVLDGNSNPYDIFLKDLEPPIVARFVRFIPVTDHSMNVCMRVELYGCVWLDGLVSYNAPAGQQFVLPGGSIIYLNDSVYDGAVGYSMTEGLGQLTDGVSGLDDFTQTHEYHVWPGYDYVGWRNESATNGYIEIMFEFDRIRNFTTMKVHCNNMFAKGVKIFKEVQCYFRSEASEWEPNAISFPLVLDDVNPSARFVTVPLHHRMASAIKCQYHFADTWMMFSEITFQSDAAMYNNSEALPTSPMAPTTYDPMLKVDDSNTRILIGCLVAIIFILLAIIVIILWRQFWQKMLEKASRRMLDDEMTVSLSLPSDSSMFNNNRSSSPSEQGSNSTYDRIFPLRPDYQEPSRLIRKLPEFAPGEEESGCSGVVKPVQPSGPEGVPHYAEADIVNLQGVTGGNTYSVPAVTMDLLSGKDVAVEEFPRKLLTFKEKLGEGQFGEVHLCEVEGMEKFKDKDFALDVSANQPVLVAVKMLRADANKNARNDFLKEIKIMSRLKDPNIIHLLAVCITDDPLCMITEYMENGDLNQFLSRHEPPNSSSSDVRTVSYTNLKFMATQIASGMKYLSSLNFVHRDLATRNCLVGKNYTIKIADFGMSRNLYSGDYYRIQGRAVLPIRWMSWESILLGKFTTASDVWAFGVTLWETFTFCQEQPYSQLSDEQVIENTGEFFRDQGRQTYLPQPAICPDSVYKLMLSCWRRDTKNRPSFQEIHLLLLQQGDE
Briefly: Selectivity interaction (KinomeScan (DiscoverX)) EUB0001079a DDR2. To be noted: at 1 µM.

Test [2] concerns the target Wee1-like protein kinase 2 (Homo sapiens) (UniProt P0C1S8). The test can be described thus: Selectivity interaction (KinomeScan (DiscoverX)) EUB0000045b WEE2.
Test [3] concerns the target Serine/threonine-protein kinase tousled-like 2 (Homo sapiens) (UniProt Q86UE8). Briefly: Selectivity interaction (KinomeScan (DiscoverX)) EUB0000666a TLK2. Conditions: at 10 µM.
In test [4] the target is T2, Inhibitor of nuclear factor kappa-B kinase subunit alpha (Homo sapiens) (UniProt O15111).
T2 sequence (whole entry): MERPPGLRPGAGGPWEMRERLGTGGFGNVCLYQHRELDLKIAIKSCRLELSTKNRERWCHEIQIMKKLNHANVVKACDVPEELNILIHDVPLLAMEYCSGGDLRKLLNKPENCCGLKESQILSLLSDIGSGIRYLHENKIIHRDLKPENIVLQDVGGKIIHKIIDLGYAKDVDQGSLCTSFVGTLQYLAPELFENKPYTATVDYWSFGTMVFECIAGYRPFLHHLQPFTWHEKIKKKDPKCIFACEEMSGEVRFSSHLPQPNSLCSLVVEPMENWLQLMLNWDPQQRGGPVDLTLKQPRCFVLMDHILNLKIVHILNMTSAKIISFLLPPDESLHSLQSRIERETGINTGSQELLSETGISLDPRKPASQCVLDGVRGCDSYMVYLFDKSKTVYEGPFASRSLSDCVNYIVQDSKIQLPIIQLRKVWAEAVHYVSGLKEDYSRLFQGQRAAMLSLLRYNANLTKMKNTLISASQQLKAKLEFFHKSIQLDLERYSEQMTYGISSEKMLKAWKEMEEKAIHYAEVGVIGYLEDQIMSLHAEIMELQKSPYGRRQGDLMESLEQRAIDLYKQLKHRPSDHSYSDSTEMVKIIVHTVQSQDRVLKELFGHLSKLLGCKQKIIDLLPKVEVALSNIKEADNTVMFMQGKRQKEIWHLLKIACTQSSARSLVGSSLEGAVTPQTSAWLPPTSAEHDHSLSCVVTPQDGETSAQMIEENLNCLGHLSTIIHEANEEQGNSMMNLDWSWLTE
The test can be described thus: Selectivity interaction (KinomeScan (DiscoverX)) EUB0000229b CHUK. Conditions: at 10 µM.

Another test has as its target Thromboxane A2 receptor (Homo sapiens, UniProt P21731). The test can be described thus: Selectivity interaction (Thromboxane A2 receptor binding assay, human recombinant) EUB0000877a TBXA2R.
The target in test [5] is T3, Phosphorylase b kinase gamma catalytic chain, liver/testis isoform (Homo sapiens) (UniProt P15735).
T3 sequence (whole entry): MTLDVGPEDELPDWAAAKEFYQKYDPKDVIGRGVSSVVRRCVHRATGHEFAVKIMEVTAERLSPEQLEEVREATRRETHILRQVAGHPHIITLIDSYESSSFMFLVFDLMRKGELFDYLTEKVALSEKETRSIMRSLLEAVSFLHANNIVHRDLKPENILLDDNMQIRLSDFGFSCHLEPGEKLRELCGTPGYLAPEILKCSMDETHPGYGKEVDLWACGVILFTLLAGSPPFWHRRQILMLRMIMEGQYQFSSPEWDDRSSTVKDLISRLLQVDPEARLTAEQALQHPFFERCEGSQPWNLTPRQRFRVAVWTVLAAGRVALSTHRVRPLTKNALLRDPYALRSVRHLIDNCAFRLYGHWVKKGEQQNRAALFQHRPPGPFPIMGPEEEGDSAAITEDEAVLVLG
Briefly: Selectivity interaction (KinomeScan (DiscoverX)) EUB0000618a PHKG2. Conditions: at 10 µM.

Wee1-like protein kinase 2 (Homo sapiens), sequence (P0C1S8 whole entry, looked up): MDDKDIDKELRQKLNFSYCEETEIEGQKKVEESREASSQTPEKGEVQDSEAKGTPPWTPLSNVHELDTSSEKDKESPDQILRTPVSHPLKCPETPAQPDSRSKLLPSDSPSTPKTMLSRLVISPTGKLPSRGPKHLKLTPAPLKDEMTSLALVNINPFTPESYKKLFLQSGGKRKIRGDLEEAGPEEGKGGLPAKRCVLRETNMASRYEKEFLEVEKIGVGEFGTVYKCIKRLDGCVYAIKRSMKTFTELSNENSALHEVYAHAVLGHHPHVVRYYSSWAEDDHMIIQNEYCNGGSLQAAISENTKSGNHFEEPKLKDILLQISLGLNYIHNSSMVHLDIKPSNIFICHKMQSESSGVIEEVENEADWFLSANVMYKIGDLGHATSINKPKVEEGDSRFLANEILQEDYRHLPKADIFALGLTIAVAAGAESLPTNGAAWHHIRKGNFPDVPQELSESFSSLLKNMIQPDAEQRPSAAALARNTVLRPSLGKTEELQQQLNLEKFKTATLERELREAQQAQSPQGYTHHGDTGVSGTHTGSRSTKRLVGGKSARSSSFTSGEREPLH
Thromboxane A2 receptor, sequence (P21731 whole entry, canonical isoform): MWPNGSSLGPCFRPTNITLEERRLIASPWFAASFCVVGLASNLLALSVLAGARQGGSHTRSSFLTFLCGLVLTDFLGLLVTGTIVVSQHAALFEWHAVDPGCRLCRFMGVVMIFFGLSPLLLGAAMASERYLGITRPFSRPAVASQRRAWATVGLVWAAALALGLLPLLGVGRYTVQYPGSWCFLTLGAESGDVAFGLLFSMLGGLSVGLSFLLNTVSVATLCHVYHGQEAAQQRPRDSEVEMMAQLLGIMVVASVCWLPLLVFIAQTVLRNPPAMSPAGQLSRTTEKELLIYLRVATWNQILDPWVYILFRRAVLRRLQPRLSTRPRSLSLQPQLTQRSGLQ
Serine/threonine-protein kinase tousled-like 2 (Homo sapiens), sequence (Q86UE8 whole entry, looked up): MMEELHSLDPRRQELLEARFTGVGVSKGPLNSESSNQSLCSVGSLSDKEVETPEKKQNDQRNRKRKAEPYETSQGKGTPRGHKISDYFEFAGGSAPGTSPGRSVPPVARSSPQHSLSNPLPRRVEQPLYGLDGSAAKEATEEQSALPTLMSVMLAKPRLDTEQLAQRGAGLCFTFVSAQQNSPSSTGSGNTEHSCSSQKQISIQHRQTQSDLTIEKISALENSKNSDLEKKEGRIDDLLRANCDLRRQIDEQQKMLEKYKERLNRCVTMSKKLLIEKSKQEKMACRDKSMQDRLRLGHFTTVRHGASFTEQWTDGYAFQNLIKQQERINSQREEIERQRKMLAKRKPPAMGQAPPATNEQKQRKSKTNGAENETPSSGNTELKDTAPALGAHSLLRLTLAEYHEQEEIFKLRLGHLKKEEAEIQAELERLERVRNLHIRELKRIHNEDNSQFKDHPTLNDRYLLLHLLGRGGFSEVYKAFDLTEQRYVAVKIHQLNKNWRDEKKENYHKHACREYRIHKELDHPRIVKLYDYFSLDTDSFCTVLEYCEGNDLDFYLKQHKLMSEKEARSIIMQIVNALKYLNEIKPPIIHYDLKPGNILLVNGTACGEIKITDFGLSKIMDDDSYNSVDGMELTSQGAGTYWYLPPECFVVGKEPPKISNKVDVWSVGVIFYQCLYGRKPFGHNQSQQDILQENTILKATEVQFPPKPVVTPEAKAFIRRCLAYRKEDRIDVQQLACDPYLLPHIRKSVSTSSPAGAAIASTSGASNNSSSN

In test [1], `Nc1cnc(N2CCc3cc(S(=O)(=O)Nc4c(F)cc(Cl)cc4F)cc(N4CCCC4=O)c32)nc1` [TP-020n] yielded a % of control of 100%. Turning to `C=CC(=O)Nc1cc(-n2c(=O)ccc3cnc4ccc(-c5ccc(NS(C)(=O)=O)cc5)cc4c32)ccc1C`, the % of control was 66% in test [2] (at 1 µM) and 100% in test [2] (at 10 µM). The compound `O=C(NOC[C@H](O)CO)c1ccc(F)c(F)c1Nc1ccc(I)cc1F` displayed a % of control in test [3] of 98%. In the case of `COc1cc(N(C)c2ccnc3ccc(C(F)(F)F)cc23)cc(OC)c1OC`, in test [4], the % binding came to 92%.

As to `CCC(=O)N1CC[C@H](Nc2ncnc3c2CN(c2cnc(OC)c(C(F)(F)F)c2)CC3)C1` [LENIOLISIB], at Thromboxane A2 receptor, the IC50 – broadly, the concentration at which inhibition is half-maximal – is over 30 µM.

In the case of `O[C@H]1CC[C@H](Nc2ncc3nc(Nc4c(F)cc(F)cc4F)n([C@H]4CCOC4)c3n2)CC1`, the % of control in test [5] amounted to 99%.
